Test results taken from patent publication US11001581B2, “Compounds which inhibit RNA polymerase, compositions including such compounds, and their use” (THE JOHNS HOPKINS UNIVERSITY, priority 2014, dated 2021).

How the values were obtained:
NCI60 cancer cell lines = settings: earlier studies of the inventors; cited from earlier work
tumor burden = settings: earlier studies of the inventors; cited from earlier work
RPA194 = assay: Determination of RPA194 IC50 (immunofluorescence image analysis of RPA194 degradation); assay type: cell-based; settings: U2OS cells, 3 h treatment, 0.1-10 μM, fold change to control, three-parameter fit
Description: (§1) Immunofluorescence, Epifluorescence Microscopy and Image Analysis. […] Cells were stained for RPA194 (C-1, Santa Cruz Biotechnology) and NCL (4E2, Abeam). […] DNA was counterstained with DAPI (Invitrogen). Images were captured using Axioplan2 fluorescence microscope (Zeiss) equipped with AxioCam HRc CCD-camera and AxioVision 4.5 software using EC Plan-Neofluar 20×/0.75 objective (Zeiss). […] Hue saturation and brightness range were defined individually for RPA194 and NCL. All values were normalized to the DNA content. Two-four fields of each treatment were recorded and quantification was based on an average of 200 cells.
(§2) Determination of RPA194 and NCL IC50. U2OS cells grown on coverslips were treated the compounds at 0.1, 0.5, 1, 5 and 10 μM, or vehicle (DMSO)-treated for 3 h and fixed and stained as above. All compounds, except when indicated, were tested in duplicate independent biological experiments Immunostaining for NCL and RPA194 was conducted separately, and cells were counterstained for DNA. Two-four fields of each treatment were captured using epifluorescence microscopy as above, and contained on average of 200 cells/analysis. […] Hue saturation and brightness range were defined individually for RPA194 and NCL, and all values were normalized to the DNA content.

NCL = assay: Determination of NCL IC50 (loss of NCL nucleolar intensity, immunofluorescence image analysis); assay type: cell-based; settings: U2OS cells, 3 h treatment, 0.1-10 μM, fold change to control, three-parameter fit
Description: as §1
as §2, with “U2OS cells grown on coverslips were treated the compounds at 0.1, 0.5, 1, 5 and 10 μM, or vehicle (DMSO)-treated for 3 h and fixed and stained as above.” left out

IC50 (RPA194) [µM] | IC50 (NCL) [µM] | SMILES | anticancer activity in NCI60 cancer cell lines (NCI60 cancer cell lines) | tumor burden in mouse xenograft assays (tumor burden)
– | – | CN(C)CCNC(=O)c1cccn2c(=O)c3cc4ccccc4cc3nc12 [BMH-21, 12H-Benzo[g]pyrido[2,1-b]quinazoline-4-carboxamide, N-[2(dimethylamino)ethyl]-12-oxo] | broad and potent anticancer activity | reduced tumor burden
0.9 | 0.47 | CN1CC(NC(=O)c2cccn3c(=O)c4cc5ccccc5cc4nc23)C1 [Compound 29, N-(1-methylazetidin-3-yl)-12-oxo-12H-benzo[g]pyrido[2,1-b]quinazoline-4-carboxamide] | – | –
0.27 | 0.2 | CC(C)(N)CNC(=O)c1cccn2c(=O)c3cc4ccccc4cc3nc12 [Compound 30, N-(2-amino-2-methyl-propyl)-12-oxo-12H-benzo[g]pyrido[2,1-b]quinazoline-4-carboxamide] | – | –
0.16 | 0.14 | CN(C)C(C)(C)CNC(=O)c1cccn2c(=O)c3cc4ccccc4cc3nc12 [Compound 31, N-[2-(dimethylamino)-2-methyl-propyl]-12-oxo-12H-benzo[g]pyrido[2,1-b]quinazoline-4-carboxamide] | – | –
0.1 | 0.1 | CC(N)CNC(=O)c1cccn2c(=O)c3cc4ccccc4cc3nc12 (stereo not drawn) [Compound 32, N-(2-aminopropyl)-12-oxo-12H-benzo[g]pyrido[2,1-b]quinazoline-4-carboxamide] | – | –
0.11 | 0.81 | C[C@@H](N)CNC(=O)c1cccn2c(=O)c3cc4ccccc4cc3nc12 [Compound 33, N-[(2R)-2-aminopropyl]-12-oxo-12H-benzo[g]pyrido[2,1-b]quinazoline-4-carboxamide] | – | –
0.12 | 0.17 | C[C@H](N)CNC(=O)c1cccn2c(=O)c3cc4ccccc4cc3nc12 [Compound 35, N-[(2S)-2-aminopropyl]-12-oxo-12H-benzo[g]pyrido[2,1-b]quinazoline-4-carboxamide] | – | –
3.5 | > 100 | O=C(NCCc1ccncc1)c1cccn2c(=O)c3cc4ccccc4cc3nc12 [Compound 37, 12-oxo-N-[2-(4-pyridyl)ethyl]-12H-benzo[g]pyrido[2,1-b]quinazoline-4-carboxamide] | – | –

SMILES | IC50 (RPA194) [µM] | IC50 (NCL) [µM] | anticancer activity in NCI60 cancer cell lines (NCI60 cancer cell lines) | tumor burden in mouse xenograft assays (tumor burden)
CCN(CC)C1CCN(C(=O)c2cccn3c(=O)c4cc5ccccc5cc4nc23)C1 (stereo not drawn) [Compound 19, 4-[3-(diethylamino)pyrrolidine-1-carbonyl]-12H-benzo[g]pyrido[2,1-b]quinazoline-12-one] | 32 | 11 | – | –
